Assay results reported in ChEMBL document CHEMBL3046750, “Synthesis, characterization and antimicrobial activity of novel ethyl 1-(N-substituted)-5-phenyl-1H-pyrazole-4-carboxylate derivatives” (2012).
≈ marks a conversion by molar mass, not a printed value. Calls of active or inactive are those of the source. The calls are words filed in the database; no cut-off is given here.

Tests used:
Escherichia coli [1] = test: Antibacterial activity against Escherichia coli after 16 hr by serial dilution method; assay type: functional
Bacillus subtilis [2] = test: Antibacterial activity against Bacillus subtilis after 16 hr by serial dilution method; assay type: functional
Staphylococcus aureus [3] = test: Antibacterial activity against Staphylococcus aureus after 16 hr by serial dilution method; assay type: functional
Pseudomonas aeruginosa [4] = test: Antibacterial activity against Pseudomonas aeruginosa after 16 hr by serial dilution method; assay type: functional
Bacillus subtilis [5] = test: Antibacterial activity against Bacillus subtilis at 1.6125 ug/ml after 16 hr by serial dilution method; assay type: functional, organism-based
Escherichia coli [6] = test: Antibacterial activity against Escherichia coli at 1.6125 ug/ml after 16 hr by serial dilution method; assay type: functional, organism-based
Staphylococcus aureus [7] = test: Antibacterial activity against Staphylococcus aureus at 1.6125 ug/ml after 16 hr by serial dilution method; assay type: functional, organism-based
Pseudomonas aeruginosa [8] = test: Antibacterial activity against Pseudomonas aeruginosa at 1.6125 ug/ml after 16 hr by serial dilution method; assay type: functional, organism-based

Row | SMILES | MIC (Escherichia coli [1]) | MIC (Bacillus subtilis [2]) | MIC (Staphylococcus aureus [3]) | MIC (Pseudomonas aeruginosa [4]) | Activity (Bacillus subtilis [5]) | Activity (Escherichia coli [6]) | Activity (Staphylococcus aureus [7]) | Activity (Pseudomonas aeruginosa [8])
1 | CCOC(=O)c1cnn(-c2ccc3ccccc3n2)c1-c1ccccc1 | 6.25 mg/L (≈ 18.2 µM) | 3.12 mg/L (≈ 9.1 µM) | 3.12 mg/L (≈ 9.1 µM) | 3.12 mg/L (≈ 9.1 µM) |  |  |  | 
2 | CCOC(=O)c1cnn(-c2ccc(C(=O)O)cc2)c1-c1ccccc1 |  |  | 50 mg/L (≈ 149 µM) | 25 mg/L (≈ 74.3 µM) | inactive | inactive |  | 
3 | CCOC(=O)c1cnn(-c2ccc(C)cc2)c1-c1ccccc1 |  |  |  |  | inactive | inactive | inactive | inactive
4 | CCOC(=O)c1cnn(C(C)(C)C)c1-c1ccccc1 |  |  |  |  | inactive | inactive | inactive | inactive
5 | CCOC(=O)c1cnn(-c2ccc(C(F)(F)F)cc2)c1-c1ccccc1 | 1.61 mg/L (≈ 4.48 µM) | 1.61 mg/L (≈ 4.48 µM) | 3.12 mg/L (≈ 8.67 µM) | 1.61 mg/L (≈ 4.48 µM) |  |  |  | 
6 | CO/N=C(\C(=O)N[C@@H]1C(=O)N2C(C(=O)O)=C(CSc3nc(=O)c(O)nn3C)CS[C@H]12)c1csc(N)n1 [CEFTRIAXONE] | 1.61 mg/L (≈ 2.91 µM) | 1.61 mg/L (≈ 2.91 µM) | 3.12 mg/L (≈ 5.63 µM) | 1.61 mg/L (≈ 2.91 µM) |  |  |  | 
7 | CCOC(=O)c1cnn(C)c1-c1ccccc1 |  |  |  |  | inactive | inactive | inactive | inactive

Continued, in another order:

Row | MIC (Escherichia coli [1]) | MIC (Bacillus subtilis [2]) | MIC (Staphylococcus aureus [3]) | MIC (Pseudomonas aeruginosa [4]) | SMILES | Activity (Bacillus subtilis [5]) | Activity (Escherichia coli [6]) | Activity (Staphylococcus aureus [7]) | Activity (Pseudomonas aeruginosa [8])
8 | 1.61 mg/L (≈ 5.39 µM) | 3.12 mg/L (≈ 10.4 µM) | 3.12 mg/L (≈ 10.4 µM) | 1.61 mg/L (≈ 5.39 µM) | CCOC(=O)c1cnn(C2CCNCC2)c1-c1ccccc1 |  |  |  | 
9 | 1.61 mg/L (≈ 4.47 µM) | 1.61 mg/L (≈ 4.47 µM) | 1.61 mg/L (≈ 4.47 µM) | 3.25 mg/L (≈ 9 µM) | CCOC(=O)c1cnn(-c2ccc(Cl)cc2Cl)c1-c1ccccc1 |  |  |  | 
10 |  | 12.5 mg/L (≈ 35.9 µM) |  | 12.5 mg/L (≈ 35.9 µM) | CCOC(=O)c1cnn(-c2ccc(C(C)(C)C)cc2)c1-c1ccccc1 |  | inactive | inactive | 
11 | 1.61 mg/L (≈ 5.2 µM) | 3.12 mg/L (≈ 10.1 µM) | 6.25 mg/L (≈ 20.1 µM) | 1.61 mg/L (≈ 5.2 µM) | CCOC(=O)c1cnn(-c2ccc(F)cc2)c1-c1ccccc1 |  |  |  | 
12 | 12.5 mg/L (≈ 41.9 µM) | 6.25 mg/L (≈ 20.9 µM) | 6.25 mg/L (≈ 20.9 µM) | 6.25 mg/L (≈ 20.9 µM) | CCOC(=O)c1cnn(C2CCCCC2)c1-c1ccccc1 |  |  |  | 
13 | 1.61 mg/L (≈ 4.34 µM) | 1.61 mg/L (≈ 4.34 µM) | 3.12 mg/L (≈ 8.42 µM) | 1.61 mg/L (≈ 4.34 µM) | CCOC(=O)c1cnn(-c2ccccc2Br)c1-c1ccccc1 |  |  |  | 
